From patent publication US10119079B2, “Composition for removal of sulfur-containing compounds” (KURARAY CO., LTD., priority 2014, dated 2018) come the findings set out here.

Values after ≈ are worked out from the molar mass of the structure shown.

In data set [1] the test system is 6-week-old male CRj:CD(SD) rat. As to the kind of experiment: Oral toxicity, 14-day repeated oral administration. The class given is in vivo. From the text:
A test substance which had been emulsified and dispersed in a 2%-gum arabic aqueous solution (containing 0.5%-Tween 80) was compulsorily administered in a 6-week-old male CRj:CD(SD) rat once a day for 14 days by using an oral sonde. A body weight variation and a general state during the administration period were observed. The rat was fasted for one day from the final administration date (drinking was freely taken), and on the day after final administration, taking a blood sample (for various blood tests) and mass measurement of major organs were performed. In addition, with respect to the liver, kidney, spleen, and testis, a histopathological examination (optical microscopic observation of HE-stained thin sliced tissue piece) was also carried out. A dose was set to 1,000, 250, 60, 15, and 0 mg/kg/day (administration liquid volume=1 mL/100 g-body weight/day), respectively, and five animals were used for each dosage.
(1) NL (GC purity: 99.7%)
(2) Glutaraldehyde (water content: 101 ppm, GC purity: 99.8%)
As a result of the test, with respect to NL, no fatal case was admitted even at the highest dose of 1,000 mg/kg/day.

For data set [2], the system named is sludge of the sewage treatment plant. In words: Bactericidal test on sludge (MTT method). The following applies: sludge bacterial culture, about 25° C., 24 and 48 hours, MTT visual. The format is cell-based. The procedure: To a synthetic sewer water prepared by dissolving 5 g of each of glucose, peptone, and monopotassium dihydrogen phosphate in one liter of water and adjusting the pH at 7.0±1.0 with sodium hydroxide, a sludge of the sewage treatment plant located in the Mizushima district, Kurashiki-shi, Okayama Prefecture, Japan was added in an amount of 30 ppm as converted to dry mass, thereby preparing a bacterial culture. Meanwhile, a test substance was diluted with distilled water on a scale of […] in a final concentration of 1,000 to 0.004 ppm (common ratio=4) on a 24-well microplate, thereby preparing test solutions. Two wells were used for every concentration. As a comparison target, (distilled water+bacterial culture) was defined as “bacterial culture blank”, and distilled water alone was defined as “blank”.
The above-prepared bacterial culture and test solution were mixed in a volume ratio of 1/1, and the mixture was allowed to stand within a thermostatic tank at ambient temperature (about 25° C.) for 24 hours and 48 hours, respectively. A level of sludge influence at each concentration of the test substance was visually observed by means of the MTT method. An MTT reagent is converted by mitochondria as a microorganism in the sludge to form formazan, thereby developing a blue color.
(1) Mixture of NL and MOL (GC purity: 98.7%, NL/MOL=59/41) […]
(In general: Tetrazolium assays rely on reduction of a dye to a coloured formazan, in cell work by metabolically active cells.)

A short description of data set [3]: Removal of H2S from crude oil in autoclave (Examples 2-3, Comparative Examples 1-2). The following applies: liquid added at 1% by mass, 80° C., 5 hours, 800 rpm; for H2S concentration of the gas phase part after the reaction: initial 2,580-2,800 ppm. Here is the method:
In a 100-mL autoclave equipped with a thermometer and a stirrer, 30 mL of a crude oil collected in Japan was charged and stirred until an H2S concentration of a gas phase part became constant. Thereafter, the concentration was measured with RX-517 (manufactured by Riken Kiki Co., Ltd.) and found to be 2,800 ppm. Subsequently, a composition liquid prepared by mixing PEG-200 and NL/MOL in a mass ratio of 1/1 was added in a concentration of 1% by mass relative to the crude oil. At this time, the addition amount of NL/MOL was 0.6 mmol, and the presence amount of H2S within the apparatus was 0.05 mmol. Thereafter, the inside of the apparatus was subjected to temperature rise to 80° C. while stirring at 800 rpm, and the contents were allowed to react with each other for 5 hours. After the reaction, the reaction mixture was cooled to room temperature, an H2S concentration of the gas phase part was measured and found to be 2 ppm, and a removal efficiency was 99.9%.
(§1) In a 100-mL autoclave equipped with a thermometer and a stirrer, 30 mL of a crude oil collected in Japan was charged and stirred until an H2S concentration of a gas phase part became constant. Thereafter, the concentration was measured with RX-517 (manufactured by Riken Kiki. Co., Ltd.) and found to be 2,580 ppm. Subsequently, a 50% by mass MGL aqueous solution was added in a concentration of 1% by mass relative to the crude oil. At this time, the addition amount of MGL was 0.9 mmol, and the presence amount of H2S within the apparatus was 0.05 mmol. Thereafter, the inside of the apparatus was subjected to temperature rise to 80° C. while stirring at 800 rpm, and the contents were allowed to react with each other for 5 hours. After the reaction, the reaction mixture was cooled to room temperature, an H2S concentration of the gas phase part was measured and found to be 70 ppm, and a removal efficiency was 97.3%.
as §1, with “Kiki” for “Kiki.”, “2,714” for “2,580”, “glutaraldehyde” for “MGL”, “1.0” for “0.9”, “100” for “70”, “96.3%.” for “97.3%.”
In a 100-mL autoclave equipped with a thermometer and a stirrer, 30 mL of a crude oil collected in Japan was charged and stirred until an H2S concentration of a gas phase part became constant. Thereafter, the concentration was measured with RX-517 (manufactured by Riken Kiki Co., Ltd.) and found to be 2,600 ppm. Subsequently, a 40% by mass glyoxal aqueous solution (manufactured by Wako Pure Chemical Industries, Ltd.) was added in a concentration of 1% by mass relative to the crude oil. At this time, the addition amount of glyoxal was 1.8 mmol, and the presence amount of H2S within the apparatus was 0.04 mmol. Thereafter, the inside of the apparatus was subjected to temperature rise to 80° C. while stirring at 800 rpm, and the contents were allowed to react with each other for 5 hours. After the reaction, the reaction mixture was cooled to room temperature, an H2S concentration of the gas phase part was measured and found to be 498 ppm, and a removal efficiency was 80.8%.

For data set [4], the system named is Pseudokirchneriella subcapitata. In words: Alga growth inhibition test (OECD Test Guidelines No. 201). The format is cell-based. The following applies: Selenastrum capricornutum; algae growth inhibition, 23° C., 72 hours; read-out: ErC50 (72 hr).
Protocol: An alga growth inhibition test of a test substance was carried out with reference to OECD Test Guidelines No. 201. That is, each of the following test substances was diluted with a test medium to a prescribed dosage. A liquid suspension of algae which had been grown to an exponential growth phase by preculture was added in an initial concentration of 1×10^4 cells/mL. The liquid suspension was subjected to shaking culture at 23° C. using a light irradiation-type bio shaker (BR-180LF, manufactured by Taitec Corporation), the number of algae cells at an elapsed time of 24, 48, and 72 hours, respectively after the start of the test was counted with a flow cytometer (Cell Lab Quant SC, manufactured by Beckman Coulter, Inc.), and a growth ratio at each test dosage was calculated while defining a growth ratio of the normal control as 100%. In addition, ErC50 was calculated according to an equation of an approximate curve of a graph plotting a growth inhibition ratio.
Algae: Pseudokirchneriella subcapitata
Dosage of Test Substance:
Each of the test substance (1) and the test substance (2): 100, 32, 10, 3.2, 1, 0.32 mg/L (common ratio: √10), and 0 mg/L (normal control)
Standard substance: 3.2, 1, 0.32 mg/L, and 0 mg/L (normal control)
Setting [5] is: rat, oral, once a day for 14 days.

`O=CCCCCCCCC=O` [NL, 1,9-nonanedial]: the “classification as deleterious substance” value in data set [1] (rat oral toxicity test) is on record as “not corresponding to a “deleterious substance””. For the same molecule, in data set [1] (setting [5]), the “NOEL (maximum no-effect level)” value was determined as 250 mg/kg. Moreover, in data set [1] (rat, oral, once a day for 14 days, highest dose of 1,000 mg/kg/day), the fatal cases result is “no fatal case”.

As for `O=CCCCC=O` [Glutaraldehyde, glutaraldehyde], the Sterilizing concentration in data set [2] was determined as 63 ppm. Moreover, in data set [3], the removal efficiency was 96.3% and the “H2S concentration of the gas phase part after the reaction” value (“H2S concentration of the gas phase part” below) amounted to 100 ppm. For the same molecule, the EC50 in data set [4] is 9 µg/mL (≈ 89.9 µM). In addition, in data set [1] (setting [5]), the “NOEL (maximum no-effect level)” value is on record as 5 mg/kg.

Regarding `CC(CC=O)CC=O` [MGL, 3-methylglutaraldehyde], in data set [3], the removal efficiency turned out to be 97.3% and the “H2S concentration of the gas phase part” value worked out at 70 ppm.

Turning to `O=CC=O` [glyoxal], in data set [3], the removal efficiency turned out to be 80.8% and the “H2S concentration of the gas phase part” value amounted to 498 ppm.
